PMC9741454, “Selective Structural Derivatization of Flavonoid Acetamides Significantly Impacts Their Bioavailability and Antioxidant Properties” (Molecules, 2022)
Where “and” joins values, the source holds several entries; their conditions need not be identical. Equal values may be shown once.

Tests used:
[1] = DPPH free radical scavenging assay; details: relative IC50, 30 min in the dark, absorbance at 517 nm, methanolic DPPH
Procedure: The stock solutions of the flavonoid acetamide derivatives were prepared in dimethyl sulfoxide. A fresh batch of 50 µM DPPH radical solution was prepared in methanol. The DPPH free radical scavenging activities of the flavonoid acetamide derivatives were determined using our previously reported literature procedure.
Into an amber vial, 1.00 × 10^2 µL solution of the flavonoid acetamide derivative in dimethyl sulfoxide was added into a 3.00 × 10^3 µL of a fresh batch of methanolic DPPH solution. This reaction mixture was incubated, away from light, for half an hour. The absorbance of the resultant solution was read on a UV-Vis spectrophotometer, λmax = 517 nm. This experiment was done across several concentrations to obtain the concentration-based antioxidant activity data which was subsequently used to calculate the relative half-maximal inhibitory concentration (IC50) values.
Given the observed variation of the stability of the DPPH free radical across different solvent vehicles, the stability of the DPPH free radicals was established in both methanol and dimethyl sulfoxide solvents. The percentage DPPH free radical scavenging activity of the flavonoid acetamide derivatives was computed against dimethyl sulfoxide, as per Equation (3). (3) % DPPH RSA=Absorbance of control−Absorbance of sample /Absorbance of control×100
Absorbance control is the absorbance of the blank methanolic DPPH sample with DMSO. The absorbance values were obtained at λmax = 517 nm.
The % RSA obtained was plotted and used to obtain the relative half-maximal inhibitory concentration (IC50) values, which were double confirmed using verified online computational tools.
The 2,2-diphenyl-1-picrylhydrazyl (DPPH) assay was used to evaluate the free radical scavenging capacity of the flavonoid acetamide derivatives. This assay is based on the colorimetric quantification of the DPPH free radicals. The reaction of the DPPH radicals with an antioxidant compound results in the loss of the DPPH free radical properties. The loss of the DPPH free radical properties is identifiable through a color change; a discoloration marked by the formation of a yellow color from the initial violet color. Slight antioxidant activity may be visually imperceptible; such a change may still be monitored spectrophotometrically through UV-Vis analysis at λmax = 517 [40, 44, 45].
The ability of the flavonoid acetamide derivatives to scavenge the DPPH free radicals is influenced by the concentration of both the flavonoid acetamide derivative and the DPPH free radicals, the reaction time, and presence of light during the reaction. The reaction time was set at 30 min and the concentration of the DPPH free radicals was […]. The concentration of the flavonoid acetamide derivatives was varied and the experiment was carried out in the dark. The actual concentration of the DPPH free radical before the addition of the flavonoid acetamide derivative was used as the standard for the purposes of the estimation of the DPPH free radical scavenging effect. The decrease in the DPPH free radical concentration upon the addition of the flavonoid acetamide derivative was used to calculate the antioxidant activity of the flavonoid acetamide derivatives. Thus, the greater the decrease in the DPPH free radical concentration, the higher the antioxidant activity. The antioxidant activity was expressed as the % RSA. […]

[2] = In vitro bioavailability by dialysis tubing procedure (pepsin then pancreatin digestion); assay type: in vitro ADME; details: for % bioavailability after phase 1 (pepsin digestion) / % bioavailability after phase 2 (pancreatin digestion): in vitro, dialysis tubing, average of three trials ± SD; for % bioavailability after phase 1 (pepsin digestion): 2 h pepsin digestion, pH 1.0, 37 °C; for % bioavailability after phase 2 (pancreatin digestion): 4 h pancreatin digestion, pH 7.0, 37 °C; for Total in vitro bioavailability: sum of phase 1 and phase 2 % bioavailability; as to % bioavailability after phase 1 (pepsin digestion): tested at 69.8 µM
Procedure: The in vitro bioavailability studies of the flavonoid acetamide derivatives were done in simulated gastric and intestinal fluids using the dialysis tubing procedure, as previously reported. The procedure involves two consecutive digestion stages: phase 1, which is a 2-h pepsin-based digestion followed by phase 2, which is a 4-h pancreatin based digestion. This procedure was adopted from Chimento, Adele, et al. (2013) and Grande, Fedora, et al. (2016).
Phase 1: Pepsin digestion, 2 h
The flavonoid acetamide derivatives were dissolved in dimethyl sulfoxide (DMSO) to achieve a concentration of 1.00 × 10^−3 M. The porcine pepsin was prepared to achieve 2.40 × 10^4 U porcine pepsin per 1.00 × 10^−3 L of solution. The sodium cholate solution was prepared to attain a final concentration of 2.00 w/v% while hydrochloric acid was prepared at a concentration of 8.50 × 10^−1 N, for immediate use.
The pepsin digestion phase was completed in 120 min. Into an oven dried test tube, a 1.00 mL of the newly prepared porcine pepsin solution was added, followed by 300 µL of the flavonoid acetamide solution. These two solutions were mixed prior to the addition of 3.00 mL of a fresh batch of the sodium cholate solution. The resultant solution was appropriately mixed and transferred into a dialysis tubing, which was subsequently sealed on both ends. The dialysis tubing was immersed into a freshly prepared 0.85 N hydrochloric acid solution (pH 1.0). The flask and its contents were incubated in a shaking water bath at a regulated temperature of 37 ± 0.5 °C. After 120 min, 3.00 mL of the liquid in the flask was obtained for UV-Vis analysis. The dialysis tubing was carefully recovered and readied for the second stage of the experiment, phase 2. Each sample experiment was done in triplicates.
Phase 2: Pancreatin digestion, 4 h
The following solutions were prepared for immediate use: a solution containing 8.00 × 10^−1 N sodium bicarbonate with […] of porcine pancreatin per 1.00 mL of solution. The dialysis tubing recovered following the pepsin digestion was carefully opened on one end and for the addition of […] of esterase and 1.30 mL of the fresh batch of the NaHCO3 solution. These contents were appropriately mixed, and the dialysis tubing was suitably sealed and immersed in a flask with PBS buffer (at pH 7.0). The flask was incubated for 4 h, in a shaking water bath at a regulated temperature of 37 ± 0.5 °C. At the end of the experiment, a 3.00 mL sample of the liquid in the flask was obtained for UV-Vis analysis. All sample experiments in this phase were done in triplicates.
The calibration curve for each flavonoid acetamide derivative was prepared at both pH 1.0 and pH 7.0. The triplicate samples obtained from both phase 1 and phase 2 of the digestions were characterized using UV-Vis; the data obtained was applied to the equations obtained from the calibration curves to calculate the amount of the flavonoid acetamide derivatives in the recovered samples. The percentage (%) of the recovered flavonoid acetamide derivative for each sample after both pepsin digestion (phase 1) and pancreatin digestion (phase 2) was calculated relative to the total flavonoid content used. Thus, the (%) bioavailability was determined from Equation (1) below. (1) % Bioavailability=Recovered Content/Total Content×100
The total in vitro bioavailability was defined as the sum of the % bioavailability after phase 1 and % bioavailability after phase 2 of the digestion, as shown in Equation (2). The final reported in vitro bioavailability value was the average of the three trials ± the standard deviation. (2) Total Bioavailability=phase 1 bioavailability+phase 2 bioavailability
The bioavailability of the flavonoid acetamides was determined using our previously reported in vitro dialysis tubing procedure. […]

Row | SMILES | IC50 [1] [µM] | % bioavailability after phase 1 (pepsin digestion) [2] | % bioavailability after phase 2 (pancreatin digestion) [2] | Total in vitro bioavailability [2]
1 | CCOC(=O)COc1cc(OCC(N)=O)cc2oc(-c3ccc(OCC(N)=O)c(OCC(N)=O)c3)c(OCC(N)=O)c(=O)c12 [Compound 5, ethyl 2-((3,7-bis(2-amino-2-oxoethoxy)-2-(3,4-bis(2-amino-2-oxoethoxy)phenyl)-4-oxo-4H-chromen-5-yl)oxy)acetate] | 198 | 11.52% and 11.52 ± 0.02% | 13.14% and 13.14 ± 0.01% | 24.66% and 24.66 ± 0.01%
2 | NC(=O)COc1cc(O)c2c(=O)c(OCC(N)=O)c(-c3ccc(OCC(N)=O)c(OCC(N)=O)c3)oc2c1 [Compound 4, 2,2′-((4-(3,7-bis(2-amino-2-oxoethoxy)-5-hydroxy-4-oxo-4H-chromen-2-yl)-1,2-phenylene)bis(oxy))diacetamide] | 31.5 | 6.70% and 6.70 ± 0.03% | 9.26% and 9.26 ± 0.05% | 15.97% and 15.97 ± 0.04%
3 | NC(=O)COc1cc(OCC(N)=O)c2c(=O)c(OCC(N)=O)c(-c3ccc4c(c3)OCCO4)oc2c1 [Compound 7, 2,2′,2″-((2-(2,3-dihydrobenzo[b][1,4]dioxin-6-yl)-4-oxo-4H-chromene-3,5,7-triyl)tris(oxy))triacetamide] | 59.2 | 16.11% and 16.11 ± 0.11% | 22.01% and 22.01 ± 0.21% | 38.12 ± 0.16% and 38.12%
4 | NC(=O)COc1cc(O)c2c(=O)cc(-c3ccc(OCC(N)=O)c(OCC(N)=O)c3)oc2c1 [Compound 15, 2,2′-((4-(7-(2-amino-2-oxoethoxy)-5-hydroxy-4-oxo-4H-chromen-2-yl)-1,2-phenylene)bis(oxy))diacetamide] | 47.1 | 12.51% and 12.51 ± 0.02% | 18.01% and 18.01 ± 0.26% | 30.51% and 30.51 ± 0.27%
5 | NC(=O)COc1ccc(-c2cc(=O)c3c(O)cc(OCC(N)=O)cc3o2)cc1 [Compound 11, 2-(4-(7-(2-amino-2-oxoethoxy)-5-hydroxy-4-oxo-4H-chromen-2-yl)phenoxy)acetamide] | 93.7 | 9.98% and 9.98 ± 0.10% | 9.30% and 9.30 ± 0.09% | 19.28% and 19.28 ± 0.19%
